The test system of assay [1] is T-cell. Put plainly: IL-2 secretion from T-cells co-stimulated with anti-CD3 and anti-CD28 antibody (Biological Example 2). The class given is cell-based, human. The settings on record: Homo sapiens, T-cell, fold change over baseline (anti-CD3/anti-CD28 stimulated T-cells without inhibitor), read-out: IL-2 secretion Anti-CD3/Anti-CD28 stimulation; for fold induction at 0.3 µM: 0.3 μM Cbl-b inhibitor; for fold induction at 1 µM: 1 μM Cbl-b inhibitor. In a few lines: (§1)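 T-cells were stimulated with anti-CD3 antibody alone or with anti-CD28 antibody, in the presence or absence of Cbl-b inhibitor. IL-2 secretion or CD25 surface staining was measured, and values expressed as fold over the uninhibited baseline […].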

The target of assay [2] is T1, Cbl-b (Homo sapiens, UniProt Q13191). Put plainly: Cbl-b activity assay (Cbl-b inhibition assay), TR-FRET of Cbl-b interaction with UbcH5B-Ub. It counts as biochemical. The settings on record: assay buffer with 100 mM NaCl, 60 nM Src kinase; read-out: Cbl-b activity IC50. In a few lines:
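UbcH5B (C85K) conjugated to N-terminally Bodipy-Fluorescein-labeled ubiquitin served as the fluorescent partner. After compound preincubation, Src kinase (60 nM) with 1 mM ATP and 5 mM MgCl2 (final) was added for 1.5 h, followed by a further 1 h incubation. Some values were obtained with 50 mM NaCl and 30 nM Src.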

Assay [3] addresses T1, Cbl-b. Put plainly: Cbl-b inhibition assay (Cbl-b activity assay, FRET, Biological Example 1; 100 mM NaCl, 60 nM Src kinase). The class given is biochemical. The note with it: upper bound stated in text lists; read-out: IC50 values in the Cbl-b inhibition assay of Biological Example 1. In a few lines: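 Inhibitor activity is measured as reduced terbium-to-fluorescein FRET between streptavidin-terbium on biotinylated Cbl-b and Bodipy-fluorescein ubiquitin carried by an irreversible UbcH5B-Ub conjugate, binding of which depends on Src phosphorylation of Cbl-b.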

Assay [4] has as its system T-cell. Put plainly: CD25 cell surface staining on T-cells co-stimulated with anti-CD3 and anti-CD28 antibody (Biological Example 2). The class given is cell-based, human. The note with it: Homo sapiens, T-cell, fold change over baseline (anti-CD3/anti-CD28 stimulated T-cells without inhibitor), read-out: CD25 staining Anti-CD3/Anti-CD28 stimulation; for fold induction at 0.3 µM: 0.3 μM Cbl-b inhibitor; for fold induction at 1 µM: 1 μM Cbl-b inhibitor. In a few lines: as §1

Assay [5] concerns T-cell. Put plainly: IL-2 secretion from T-cells stimulated with anti-CD3 antibody alone (Biological Example 2). The note with it: Homo sapiens, T-cell; 1 μM Cbl-b inhibitor; fold change over baseline (anti-CD3/anti-CD28 stimulated T-cells without inhibitor); read-out: IL-2 secretion Anti-CD3 stimulation. The class given is cell-based, human.
In assay [6] the test system is T-cell. Put plainly: CD25 cell surface staining on T-cells stimulated with anti-CD3 antibody alone (Biological Example 2). It counts as cell-based, human. The note with it: Homo sapiens, T-cell; 1 μM Cbl-b inhibitor; fold change over baseline (anti-CD3/anti-CD28 stimulated T-cells without inhibitor); read-out: CD25 staining Anti-CD3 stimulation.

T1 sequence (Q13191 36-427): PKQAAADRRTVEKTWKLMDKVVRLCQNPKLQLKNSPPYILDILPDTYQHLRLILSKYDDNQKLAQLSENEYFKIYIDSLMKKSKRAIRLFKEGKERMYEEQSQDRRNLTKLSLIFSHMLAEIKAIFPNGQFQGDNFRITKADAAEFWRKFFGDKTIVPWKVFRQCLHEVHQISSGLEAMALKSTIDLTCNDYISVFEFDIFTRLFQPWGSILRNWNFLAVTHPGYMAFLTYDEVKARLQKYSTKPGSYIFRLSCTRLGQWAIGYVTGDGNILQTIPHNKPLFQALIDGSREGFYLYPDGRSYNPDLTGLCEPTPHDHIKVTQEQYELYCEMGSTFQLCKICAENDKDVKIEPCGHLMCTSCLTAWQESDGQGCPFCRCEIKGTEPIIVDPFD

Take `CCOc1cc(N2Cc3c(cc([C@H](C)N4CC[C@H](F)C4)cc3C(F)(F)F)C2=O)cc(C2(Cc3nncn3C)COC2)c1` [Example 691b, 2-(3-ethoxy-5-(3-((4-methyl-4H-1,2,4-triazol-3-yl)methyl)oxetan-3-yl)phenyl)-6-((S)-1-((S)-3-fluoropyrrolidin-1-yl)ethyl)-4-(trifluoromethyl)isoindolin-1-one]: the fold induction at 0.3 µM in assay [1] lay in the range of 2.51 to 5; in assay [4] it was 1.31 to 1.5. Further, the fold induction at 1 µM in assay [1] is over 7.5; in assay [4], 1.51 to 1.75; in assay [5], 0.151 to 0.2; in assay [6], over 1. Also, the IC50 in assay [2] was under 100 nM; in assay [3], at most 100 nM.
Take `Cc1cc2c(c(C3CC3)n1)CN(c1cccc(C3(Cc4nncn4C)COC3)c1)C2=O` [Example 692, 4-cyclopropyl-6-methyl-2-(3-(3-((4-methyl-4H-1,2,4-triazol-3-yl)methyl)oxetan-3-yl)phenyl)-2,3-dihydro-1H-pyrrolo[3,4-c]pyridin-1-one]: the fold induction at 0.3 µM in assay [1] was in the range of 1.01 to 2.5; in assay [4], 1.01 to 1.3. Further, the fold induction at 1 µM in assay [1] lay within 2.51 to 5; in assay [4] it was 1.31 to 1.5; in assay [5] it was 0.051 to 0.1; in assay [6] it was 0.801 to 1. The values for the IC50 in assay [2] and in assay [3] were under 100 nM and at most 100 nM, respectively.
`Cn1cnnc1CC1(c2cccc(N3Cc4c(cc(CN5CCCC(F)(F)C5)cc4C(F)(F)F)C3=O)c2)COC1` [Example 693, 6-((3,3-difluoropiperidin-1-yl)methyl)-2-(3-(3-((4-methyl-4H-1,2,4-triazol-3-yl)methyl)oxetan-3-yl)phenyl)-4-(trifluoromethyl)isoindolin-1-one]: the fold induction at 0.3 µM was over 7.5 in assay [1] and 1.51 to 1.75 in assay [4]. For the same compound, the fold induction at 1 µM in assay [1] was over 7.5; in assay [4], 1.51 to 1.75; in assay [5], over 0.201; in assay [6], over 1. Further, the IC50 is under 100 nM in assay [2] and at most 100 nM in assay [3].
Turning to `Cc1cc(C(=O)Nc2cccc(C3(Cc4nncn4C)CCC3)c2)nc(C2CC2)n1` [Example 694, 2-cyclopropyl-6-methyl-N-(3-(1-((4-methyl-4H-1,2,4-triazol-3-yl)methyl)cyclobutyl)phenyl)pyrimidine-4-carboxamide], the fold induction at 0.3 µM is over 7.5 in assay [1] and 1.31 to 1.5 in assay [4]. The fold induction at 1 µM in assay [1] is over 7.5; in assay [4], 1.31 to 1.5; in assay [5], 0.051 to 0.1; in assay [6], over 1. The IC50 in assay [2] is under 100 nM; in assay [3], at most 100 nM.
For the compound `Cn1cnnc1CC1(c2cccc(N3Cc4c(cc(CN5CCC6(CC6)C5)cc4C(F)(F)F)C3=O)c2)CCC1` [Example 695, 6-((5-azaspiro[2.4]heptan-5-yl)methyl)-2-(3-(1-((4-methyl-4H-1,2,4-triazol-3-yl)methyl)cyclobutyl)phenyl)-4-(trifluoromethyl)isoindolin-1-one], the fold induction at 0.3 µM in assay [1] is over 7.5; in assay [4], 1.31 to 1.5. In addition, the fold induction at 1 µM was over 7.5 in assay [1], 1.31 to 1.5 in assay [4], over 0.201 in assay [5] and over 1 in assay [6]. The IC50 in assay [2] was under 100 nM; in assay [3], at most 100 nM.
Regarding `Cn1cnnc1CC1(c2cccc(N3Cc4c(ccnc4C(F)(F)F)C3=O)c2)COC1` [Example 696, 2-(3-(3-((4-methyl-4H-1,2,4-triazol-3-yl)methyl)oxetan-3-yl)phenyl)-4-(trifluoromethyl)-2,3-dihydro-1H-pyrrolo[3,4-c]pyridin-1-one], the fold induction at 0.3 µM in assay [1] was 1.01 to 2.5; in assay [4], 1.01 to 1.3. Moreover, the fold induction at 1 µM in assay [1] was 1.01 to 2.5; in assay [4] it was 1.01 to 1.3; in assay [5], under 0.05; in assay [6], 0.601 to 0.8. Also, the IC50 is under 100 nM in assay [2] and at most 100 nM in assay [3].

For the origin of these results see US20220324835A1 (Nurix Therapeutics, Inc., priority 2018, published 2022).
